Laboratory results as given in patent publication US10538498B2, “1,3,4-oxadiazole sulfonamide derivative compounds as histone deacetylase 6 inhibitor, and the pharmaceutical composition comprising the same” (Chong Kun Dang Pharmaceutical Corp., priority 2015, dated 2020).
pIC50: −log10 of the molar value.

Biological target: T1, human recombinant HDAC6 (Homo sapiens, UniProt Q9UBN7)
T1 construct: purchased Calbiochem 382180
T1 sequence (Q9UBN7 1-1215): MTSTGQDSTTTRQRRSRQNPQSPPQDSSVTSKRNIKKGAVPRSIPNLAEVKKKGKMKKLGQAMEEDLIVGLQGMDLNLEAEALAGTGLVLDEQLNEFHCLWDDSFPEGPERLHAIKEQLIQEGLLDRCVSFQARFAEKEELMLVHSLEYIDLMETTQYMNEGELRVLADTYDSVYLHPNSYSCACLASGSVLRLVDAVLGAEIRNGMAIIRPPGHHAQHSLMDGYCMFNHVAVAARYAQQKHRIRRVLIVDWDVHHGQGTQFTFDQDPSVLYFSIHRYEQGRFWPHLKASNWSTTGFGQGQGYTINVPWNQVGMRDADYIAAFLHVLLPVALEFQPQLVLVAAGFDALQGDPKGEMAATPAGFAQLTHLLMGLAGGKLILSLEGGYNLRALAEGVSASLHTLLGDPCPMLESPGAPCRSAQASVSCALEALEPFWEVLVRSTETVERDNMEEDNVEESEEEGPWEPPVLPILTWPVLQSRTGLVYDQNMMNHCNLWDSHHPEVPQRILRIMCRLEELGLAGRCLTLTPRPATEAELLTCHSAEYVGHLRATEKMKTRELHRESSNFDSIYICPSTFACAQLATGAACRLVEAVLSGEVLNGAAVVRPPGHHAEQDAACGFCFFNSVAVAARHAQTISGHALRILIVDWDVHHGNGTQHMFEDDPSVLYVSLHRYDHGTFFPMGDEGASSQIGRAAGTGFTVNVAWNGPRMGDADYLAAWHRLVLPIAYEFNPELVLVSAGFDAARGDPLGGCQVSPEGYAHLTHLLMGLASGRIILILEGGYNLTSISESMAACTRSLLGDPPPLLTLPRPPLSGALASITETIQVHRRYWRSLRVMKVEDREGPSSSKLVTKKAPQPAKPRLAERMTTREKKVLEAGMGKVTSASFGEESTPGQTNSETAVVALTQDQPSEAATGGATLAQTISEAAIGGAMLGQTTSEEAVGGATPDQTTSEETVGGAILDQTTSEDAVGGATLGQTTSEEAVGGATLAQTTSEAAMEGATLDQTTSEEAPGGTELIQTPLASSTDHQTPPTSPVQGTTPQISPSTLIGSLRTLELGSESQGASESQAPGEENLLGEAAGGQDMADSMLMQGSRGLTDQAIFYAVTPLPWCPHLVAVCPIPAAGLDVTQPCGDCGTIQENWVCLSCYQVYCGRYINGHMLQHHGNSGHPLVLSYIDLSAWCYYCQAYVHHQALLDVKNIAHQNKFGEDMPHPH
Test: HDAC6 enzyme activity inhibition assay (HDAC Fluorimetric Drug Discovery Kit)
Format: biochemical
Conditions: for HDAC6 selectivity (fold): HDAC1 vs HDAC6; for pIC50: same protocol as the HDAC1 enzyme activity test
Procedure, shortened: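 5-fold compound dilutions + 0.3 μg enzyme + 10 μM Fluor de Lys-SIRT1 substrate, 60 min, 30° C; Developer II 30 min; fluorescence Ex 360/Em 460; IC50 by curve fit.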

HDAC6 selectivity (fold)	pIC50	Structure (SMILES)
1177 fold	7.07	O=S(=O)(CCCN1CCC(F)(F)C1)N(Cc1ccc(-c2nnc(C(F)F)o2)cn1)c1ccccc1 [Compound 11719, N-((5-(5-(difluoromethyl)-1,3,4-oxadiazol-2-yl)pyridin-2-yl)methyl)-3-(3,3-difluoropyrrolidin-1-yl)-N-phenylpropane-1-sulfonamide]
4739 fold	7.68	O=S(=O)(CCCN1CCCC1)N(Cc1ccc(-c2nnc(C(F)F)o2)cn1)c1ccc(F)c(Cl)c1 [Compound 11721, N-(3-chloro-4-fluorophenyl)-N-((5-(5-(difluoromethyl)-1,3,4-oxadiazol-2-yl)pyridin-2-yl)methyl)-3-(pyrrolidin-1-yl)propane-1-sulfonamide]
1272 fold	7.10	O=S(=O)(CCCN1CCOCC1)N(Cc1ccc(-c2nnc(C(F)F)o2)cc1)c1ccc(F)c(Cl)c1 [Compound 11723, N-(3-chloro-4-fluorophenyl)-N-(4-(5-(difluoromethyl)-1,3,4-oxadiazol-2-yl)benzyl)-3-morpholinopropane-1-sulfonamide]
412 fold	6.62	O=S(=O)(C1CCN([C@H]2CC[C@H](F)CC2)CC1)N(Cc1ccc(-c2nnc(C(F)F)o2)cc1)c1cccc(Cl)c1 [Compound 11725, N-(3-chlorophenyl)-N-(4-(5-(difluoromethyl)-1,3,4-oxadiazol-2-yl)benzyl)-1-((1r,4r)-4-fluorocyclohexyl)piperidine-4-sulfonamide]
782 fold	6.89	O=S(=O)(C1CCN([C@H]2CC[C@@H](F)CC2)CC1)N(Cc1ccc(-c2nnc(C(F)F)o2)cc1)c1cccc(Cl)c1 [Compound 11726, N-(3-chlorophenyl)-N-(4-(5-(difluoromethyl)-1,3,4-oxadiazol-2-yl)benzyl)-1-((1s,4s)-4-fluorocyclohexyl)piperidine-4-sulfonamide]
56 fold	5.75	CN1Cc2ccc(N(Cc3ccc(-c4nnc(C(F)F)o4)cc3)S(C)(=O)=O)cc2C1 [Compound 11729, N-(4-(5-(difluoromethyl)-1,3,4-oxadiazol-2-yl)benzyl)-N-(2-methylisoindolin-5-yl)methanesulfonamide]
39 fold	5.60	CC(C)N1Cc2ccc(N(Cc3ccc(-c4nnc(C(F)F)o4)cc3)S(C)(=O)=O)cc2C1 [Compound 11730, N-(4-(5-(difluoromethyl)-1,3,4-oxadiazol-2-yl)benzyl)-N-(2-isopropylisoindolin-5-yl)methanesulfonamide]
57 fold	5.76	CS(=O)(=O)N(Cc1ccc(-c2nnc(C(F)F)o2)cc1)c1ccc2c(c1)CN(C1COC1)C2 [Compound 11731, N-(4-(5-(difluoromethyl)-1,3,4-oxadiazol-2-yl)benzyl)-N-(2-(oxetan-3-yl)isoindolin-5-yl)methanesulfonamide]
184 fold	6.27	CC(=O)N1Cc2ccc(N(Cc3ccc(-c4nnc(C(F)F)o4)cc3)S(C)(=O)=O)cc2C1 [Compound 11732, N-(2-acetylisoindolin-5-yl)-N-(4-(5-(difluoromethyl)-1,3,4-oxadiazol-2-yl)benzyl)methanesulfonamide]
203 fold	6.31	CN1Cc2ccc(N(Cc3ccc(-c4nnc(C(F)F)o4)cn3)S(C)(=O)=O)cc2C1 [Compound 11733, N-((5-(5-(difluoromethyl)-1,3,4-oxadiazol-2-yl)pyridin-2-yl)methyl)-N-(2-methylisoindolin-5-yl)methanesulfonamide]
132 fold	6.12	CC(C)N1Cc2ccc(N(Cc3ccc(-c4nnc(C(F)F)o4)cn3)S(C)(=O)=O)cc2C1 [Compound 11734, N-((5-(5-(difluoromethyl)-1,3,4-oxadiazol-2-yl)pyridin-2-yl)methyl)-N-(2-isopropylisoindolin-5-yl)methanesulfonamide]
123 fold	6.09	CS(=O)(=O)N(Cc1ccc(-c2nnc(C(F)F)o2)cn1)c1ccc2c(c1)CN(C1COC1)C2 [Compound 11735, N-((5-(5-(difluoromethyl)-1,3,4-oxadiazol-2-yl)pyridin-2-yl)methyl)-N-(2-(oxetan-3-yl)isoindolin-5-yl)methanesulfonamide]
216 fold	6.34	CC(=O)N1Cc2ccc(N(Cc3ccc(-c4nnc(C(F)F)o4)cn3)S(C)(=O)=O)cc2C1 [Compound 11736, N-(2-acetylisoindolin-5-yl)-N-((5-(5-(difluoromethyl)-1,3,4-oxadiazol-2-yl)pyridin-2-yl)methyl)methanesulfonamide]
1440 fold	7.16	CN1CCCN(CCS(=O)(=O)N(Cc2ccc(-c3nnc(C(F)F)o3)cc2)c2ccccc2)CC1 [Compound 11737, N-(4-(5-(difluoromethyl)-1,3,4-oxadiazol-2-yl)benzyl)-2-(4-methyl-1,4-diazepan-1-yl)-N-phenylethanesulfonamide]
1466 fold	7.17	O=S(=O)(CCN1CCC1)N(Cc1ccc(-c2nnc(C(F)F)o2)cc1)c1ccccc1 [Compound 11738, 2-(azetidin-1-yl)-N-(4-(5-(difluoromethyl)-1,3,4-oxadiazol-2-yl)benzyl)-N-phenylethanesulfonamide]
148 fold	6.17	CS(=O)(=O)N(Cc1ccc(-c2nnc(C(F)F)o2)cc1)c1nccs1 [Compound 11739, N-(4-(5-(difluoromethyl)-1,3,4-oxadiazol-2-yl)benzyl)-N-(thiazol-2-yl)methanesulfonamide]
188 fold	6.27	CS(=O)(=O)N(Cc1ccc(-c2nnc(C(F)F)o2)cc1)c1nc2ccccc2s1 [Compound 11740, N-(benzo[d]thiazol-2-yl)-N-(4-(5-(difluoromethyl)-1,3,4-oxadiazol-2-yl)benzyl)methanesulfonamide]
57 fold	5.76	CS(=O)(=O)N(Cc1ccc(-c2nnc(C(F)F)o2)cc1)c1ncco1 [Compound 11741, N-(4-(5-(difluoromethyl)-1,3,4-oxadiazol-2-yl)benzyl)-N-(oxazol-2-yl)methanesulfonamide]
418 fold	6.62	CC(C)n1ncc2ccc(N(Cc3ccc(-c4nnc(C(F)F)o4)cc3)S(C)(=O)=O)cc21 [Compound 11742, N-(4-(5-(difluoromethyl)-1,3,4-oxadiazol-2-yl)benzyl)-N-(1-isopropyl-1H-indazol-6-yl)methanesulfonamide]
1466 fold	7.17	CCn1ncc2ccc(N(Cc3ccc(-c4nnc(C(F)F)o4)cc3)S(C)(=O)=O)cc21 [Compound 11743, N-(4-(5-(difluoromethyl)-1,3,4-oxadiazol-2-yl)benzyl)-N-(1-ethyl-1H-indazol-6-yl)methanesulfonamide]
188 fold	6.27	CC(C)c1nc2ccc(N(Cc3ccc(-c4nnc(C(F)F)o4)cc3)S(C)(=O)=O)cc2s1 [Compound 11744, N-(4-(5-(difluoromethyl)-1,3,4-oxadiazol-2-yl)benzyl)-N-(2-isopropylbenzo[d]thiazol-6-yl)methanesulfonamide]
432 fold	6.64	Cn1c(=O)n(C)c2cc(N(Cc3ccc(-c4nnc(C(F)F)o4)cc3)S(C)(=O)=O)ccc21 [Compound 11745, N-(4-(5-(difluoromethyl)-1,3,4-oxadiazol-2-yl)benzyl)-N-(1,3-dimethyl-2-oxo-2,3-dihydro-1H-benzo[d]imidazol-5-yl) methanesulfonamide]
784 fold	6.89	Cc1nn(C)c2ccc(N(Cc3ccc(-c4nnc(C(F)F)o4)cc3)S(C)(=O)=O)cc12 [Compound 11746, N-(4-(5-(difluoromethyl)-1,3,4-oxadiazol-2-yl)benzyl)-N-(1,3-dimethyl-1H-indazol-5-yl)methanesulfonamide]
